test system: HeLa cells; experiment: Dose Enhancing Factor: cell growth inhibition with bleomycin, SRB assay; type: cell-based; conditions: test compound 25 μM, bleomycin 0.5 μg/ml
Protocol: The Dose Enhancing Factor (DEF) is a ratio of the enhancement of cell growth inhibition elicited by the test compound in the presence of bleomycin compared to bleomycin alone. […] Bleomycin was used at a concentration of 0.5 μg/ml. The DEF was calculated from the formula:
[formula] where GrowthTC is cell growth in presence of the test compound; GrowthControl is cell growth of control cells; Growthbleo is cell growth in presence of bleomycin; and Growth(bleo+TC) is cell growth in presence of bleomycin and the test compound.
2,000 HeLa cells were seeded into each well of a flat-bottomed 96-well microtiter plate in a volume of 100 μl and incubated for 6 hours at 37° C. […] Cells were allowed to grow for a further 1 hour before the addition of bleomycin to either untreated cells or test compound treated cells. Cells untreated with either bleomycin or test compound were used as a control. Cells treated with test compound alone were used to assess the growth inhibition by the test compound.
Cells were left for a further 16 hours before replacing the media and allowing the cells to grow for a further 72 hours at 37° C. The media was then removed and the cells fixed with 100 μl of ice cold 10% (w/v) trichloroacetic acid. The plates were incubated at 4° C. for 20 minutes and then washed four times with water. Each well of cells was then stained with 100 μl of 0.4% (w/v) SRB in 1% acetic acid for 20 minutes before washing four times with 1% acetic acid. Plates were then dried for 2 hours at room temperature. The dye from the stained cells was solubilized by the addition of 100 μl of 10 mM Tris Base into each well.

In order of rising “DEF (Dose Enhancing Factor)” value:
1. O=c1[nH]nc(Cc2ccncc2)c2ccccc12 [Compound 177]  1.2
2. O=c1[nH]nc(Cc2ccc3c(c2)OCO3)c2ccccc12 [Compound 180]  1.2
3. O=C(O)COCC(=O)Nc1cc(Cc2n[nH]c(=O)c3ccccc23)ccc1N1CCOCC1 [Compound 206]  1.2
4. COc1cc(Cc2n[nH]c(=O)c3ccccc23)ccc1OCc1ccccc1 [Compound 222]  1.2
5. O=c1[nH]nc(Cc2ccccc2F)c2ccccc12 [Compound 248]  1.2
6. COC(=O)CSCc1n[nH]c(=O)c2ccccc12 [Compound 93]  1.3
7. O=c1[nH]nc(Cc2ccc(Br)cc2)c2ccccc12 [Compound 129]  1.3
8. O=c1[nH]nc(Cc2cccc3ccccc23)c2ccccc12 [Compound 131]  1.3
9. COc1ccc(Cc2n[nH]c(=O)c3ccccc23)cc1 [Compound 138]  1.3
10. Cc1ccccc1Cc1n[nH]c(=O)c2ccccc12 [Compound 163]  1.3
11. O=c1[nH]nc(Cc2ccc(O)cc2)c2ccccc12 [Compound 164]  1.3
12. O=c1[nH]nc(Cc2cccc(O)c2)c2ccccc12 [Compound 165]  1.3
13. CC(=O)Oc1ccc(Cc2n[nH]c(=O)c3ccccc23)cc1 [Compound 213]  1.3
14. O=C(Nc1ccc(F)cc1)Nc1cccc(Cc2n[nH]c(=O)c3ccccc23)c1 [Compound 216]  1.3
15. O=c1[nH]nc(CSc2ccccn2)c2ccccc12 [Compound 91]  1.4
16. Cc1ccc(Cc2n[nH]c(=O)c3ccccc23)cc1 [Compound 139]  1.4
17. CC(=O)Nc1ccc(Cc2n[nH]c(=O)c3ccccc23)cc1 [Compound 166]  1.4
18. CC(=O)Nc1cccc(Cc2n[nH]c(=O)c3ccccc23)c1 [Compound 172]  1.4
19. CC(=O)Oc1cccc(Cc2n[nH]c(=O)c3ccccc23)c1 [Compound 179]  1.4
20. O=c1[nH]nc(Cc2cccc(F)c2)c2ccccc12 [Compound 192]  1.4
21. O=c1[nH]nc(Cc2cccc(Br)c2)c2ccccc12 [Compound 211]  1.4
22. O=C(Nc1ccccc1)Nc1cccc(Cc2n[nH]c(=O)c3ccccc23)c1 [Compound 215]  1.4
23. Cn1ccnc1SCc1n[nH]c(=O)c2ccccc12 [Compound 92]  1.5
24. Nc1cccc(Cc2n[nH]c(=O)c3ccccc23)c1 [Compound 160]  1.5
25. O=C(Nc1cccc(Cc2n[nH]c(=O)c3ccccc23)c1)c1cccs1 [Compound 169]  1.5
26. O=c1[nH]nc(Cc2cccc(C(F)(F)F)c2)c2ccccc12 [Compound 191]  1.5
27. O=c1[nH]nc(Cc2ccccc2F)c2ccccc12 [Compound 141]  1.6
28. O=c1[nH]nc(Cc2cccc(Cl)c2)c2ccccc12 [Compound 186]  1.6
29. O=c1[nH]nc(Cc2cccc(OCc3ccccc3)c2)c2ccccc12 [Compound 194]  1.6
30. O=c1[nH]nc(Cc2ccc(N3CCCC3)c([N+](=O)[O-])c2)c2ccccc12 [Compound 204]  1.6
31. O=c1[nH]nc(CSc2ccc(Cl)cc2)c2ccccc12 [Compound 90]  1.8
32. O=c1[nH]nc(Cc2ccccc2)c2ccccc12 [Compound 145]  1.8
33. O=C(Nc1cccc(Cc2n[nH]c(=O)c3ccccc23)c1)c1ccccc1 [Compound 171]  1.8
34. O=c1[nH]nc(Cc2ccc(Cl)cc2)c2ccccc12 [Compound 126]  1.9
35. O=c1[nH]nc(Cc2ccc(I)cc2)c2ccccc12 [Compound 151]  1.9
36. O=c1[nH]nc(Cc2cccnc2)c2ccccc12 [Compound 178]  1.9
37. O=c1[nH]nc(Cc2cccc(Oc3ccccc3)c2)c2ccccc12 [Compound 193]  2.2
38. O=c1[nH]nc(Cc2ccc(F)cc2)c2ccccc12 [Compound 132]  2.3
39. Nc1cc(Cc2n[nH]c(=O)c3ccccc23)ccc1N1CCSCC1 [Compound 198]  2.3
40. O=C(Oc1cccc(Cc2n[nH]c(=O)c3ccccc23)c1)c1ccc(F)cc1 [Compound 212]  2.3
41. O=C(Nc1cccc(Cc2n[nH]c(=O)c3ccccc23)c1)c1ccc(F)cc1 [Compound 170]  2.6
42. O=C(Nc1ccc(Cc2n[nH]c(=O)c3ccccc23)cc1)c1ccc(F)cc1 [Compound 227]  2.6

Source: patent US7750006B2, “Phthalazinone derivatives” (Kudos Pharmaceuticals Limited, priority 2000, dated 2010)
